Experiment [1] concerns the target CREBBP bromodomain (His-CREBBP(1081-1197)) (Homo sapiens (Human), UniProt Q92793). As to the kind of experiment: AlphaScreen in-vitro binding assay for CREBBP. The following applies: single determination or n ≧ 2 independent determinations, read-out: Biochemical IC50 CREBBP. In short, it runs like this: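 Reactions at 30 °C for 35 min, then Ni-chelate acceptor and streptavidin donor beads in HEPES pH 7.5, NaCl, Tween20, BSA, 60 min at room temperature. Eight-point compound series; IC50 by non-linear regression of percent inhibition.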

Experiment [2] addresses BRD2 (His-Brd2(60-472)) (Homo sapiens (Human), UniProt P25440). As to the kind of experiment: TR-FRET in-vitro binding assay for BRD2. Particulars: single determination or n ≧ 2 independent determinations, read-out: Biochemical IC50 BRD2. The procedure, abridged:
(§1)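 Compounds were serially diluted over eight concentrations and added to wells. TR-FRET signal was then measured.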
A general note: In TR-FRET formats the signal depends on donor and acceptor labels being close together.

For experiment [3], the system named is MV-4-11 cells. Briefly: Cell growth inhibition assay (CellTiter-Glo), MV-4-11.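 As to all read-outs here: cellular ATP luminescence after 4 days, 3-fold dilution series from 10 µM top dose, vehicle (0.1% DMSO) set to 100%, cell-free medium set to −100%, day 0 corrected.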 Particulars: for GI50: Homo sapiens, MV4-11, read-out: MV-4-11 GI50; for MV-4-11 TGI: MV-4-11 cells, total growth inhibition, CellTiter-Glo.
For experiment [4], the target named is BRD3 (His-Brd3(20-477)) (Homo sapiens (Human), UniProt Q15059). Briefly: TR-FRET in-vitro binding assay for BRD3. The following applies: single determination or n ≧ 2 independent determinations, read-out: Biochemical IC50 BRD3. In short, it runs like this:
as §1

Experiment [5] has as its system K-562 cells. Briefly: Cell growth inhibition assay (CellTiter-Glo), K-562.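 As to all read-outs here: cellular ATP measured by luminescence after 4 days of exposure, 3-fold dilution series from 10 µM, DMSO vehicle-treated cells define 100%, cell-free medium wells −100%.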 Particulars: for GI50: Homo sapiens, K562, read-out: K-562 GI50; for K-562 TGI: K-562 cells, total growth inhibition, CellTiter-Glo. (Cellular ATP, detected with luciferase, serves as a proxy for viable cell number.)
For experiment [6], the system named is THP-1 cells. Briefly: Cell growth inhibition assay (CellTiter-Glo), THP-1.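 As to all read-outs here: viability read as cellular ATP luminescence after 4 days, 3-fold dilution series from 10 µM, DMSO vehicle-treated cells taken as 100%, cell-free medium wells as −100%.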 The following applies: for GI50: Homo sapiens, THP-1, read-out: THP-1 GI50; for THP-1 TGI: THP-1 cells, total growth inhibition, CellTiter-Glo.
For experiment [7], the target named is BRD4 (His-Brd4(44-477)) (Homo sapiens (Human), UniProt O60885). Briefly: TR-FRET in-vitro binding assay for BRD4. The following applies: single determination or n ≧ 2 independent determinations, read-out: Biochemical IC50 BRD4. In short, it runs like this: as §1

For orientation: IC50 means the concentration that inhibits the measured activity by half. In general, GI50 refers to the concentration that inhibits growth by half.

Sequence of BRD2 (His-Brd2(60-472)) (P25440 60-472): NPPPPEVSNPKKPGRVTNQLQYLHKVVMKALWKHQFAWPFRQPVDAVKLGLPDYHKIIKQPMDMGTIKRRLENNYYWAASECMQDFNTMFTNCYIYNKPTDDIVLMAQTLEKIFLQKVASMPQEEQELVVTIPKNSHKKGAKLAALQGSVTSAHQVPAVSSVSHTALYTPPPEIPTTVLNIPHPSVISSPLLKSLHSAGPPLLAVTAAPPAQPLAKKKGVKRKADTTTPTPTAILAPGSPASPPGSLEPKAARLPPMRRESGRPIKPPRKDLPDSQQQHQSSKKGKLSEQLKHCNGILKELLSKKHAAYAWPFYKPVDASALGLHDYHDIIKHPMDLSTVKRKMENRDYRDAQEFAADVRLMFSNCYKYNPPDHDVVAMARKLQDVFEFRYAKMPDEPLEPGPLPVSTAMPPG
Sequence of CREBBP bromodomain (His-CREBBP(1081-1197)) (Q92793 1081-1197): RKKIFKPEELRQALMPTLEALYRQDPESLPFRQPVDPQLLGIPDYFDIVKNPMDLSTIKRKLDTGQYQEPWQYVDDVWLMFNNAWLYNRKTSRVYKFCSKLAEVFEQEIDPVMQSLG
Sequence of BRD3 (His-Brd3(20-477)) (Q15059 20-477): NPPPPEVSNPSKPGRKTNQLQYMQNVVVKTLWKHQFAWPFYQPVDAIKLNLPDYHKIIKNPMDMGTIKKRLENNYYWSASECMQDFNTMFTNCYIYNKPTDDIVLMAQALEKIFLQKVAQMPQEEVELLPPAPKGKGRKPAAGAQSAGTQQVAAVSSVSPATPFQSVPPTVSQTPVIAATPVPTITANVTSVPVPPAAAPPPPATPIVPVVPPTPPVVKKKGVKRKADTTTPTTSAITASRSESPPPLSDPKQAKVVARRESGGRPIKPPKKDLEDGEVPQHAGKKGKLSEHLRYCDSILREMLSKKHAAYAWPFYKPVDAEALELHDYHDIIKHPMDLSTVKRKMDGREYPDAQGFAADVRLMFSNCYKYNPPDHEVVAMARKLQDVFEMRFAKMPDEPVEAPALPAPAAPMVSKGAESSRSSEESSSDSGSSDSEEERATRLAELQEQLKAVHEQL

With `Cc1nc2c([nH]1)C(c1ccc(Cl)cc1)N(c1cc(C)c3nnc(C(F)F)n3c1)C2=O` (stereo not shown) [Example 139, 6-(4-chlorophenyl)-5-(3-(difluoromethyl)-8-methyl-[1,2,4]triazolo[4,3-a]pyridin-6-yl)-2-methyl-5,6-dihydropyrrolo[3,4-d]imidazol-4(1H)-one], the IC50 is above 37000 nM in experiment [1], 86 nM in experiment [2], 42 nM in experiment [4] and 32.5 nM in experiment [7]. Moreover, the concentration for 50% growth inhibition (GI50) in experiment [3] was 57.5 nM; in experiment [5], 214 nM; in experiment [6], 40.7 nM. Further, the “MV-4-11 TGI” value in experiment [3] worked out at 99.2 nM. Besides, the “K-562 TGI” value in experiment [5] was above 10000 nM. For the same molecule, the “THP-1 TGI” value in experiment [6] came to 115.5 nM.

As for `CCN1CC=C(c2nc3c(n2C(C)C)C(c2ccc(Cl)cc2)N(c2cc(C)c4nnc(C)n4c2)C3=O)CC1` (stereo not shown) [Example 68, 6-(4-chlorophenyl)-5-(3,8-dimethyl-[1,2,4]triazolo[4,3-a]pyridin-6-yl)-2-(1-ethyl-1,2,3,6-tetrahydropyridin-4-yl)-1-isopropyl-5,6-dihydropyrrolo[3,4-d]imidazol-4(1H)-one], the IC50 stood at 5000 nM in experiment [1], 77 nM in experiment [2], 44.5 nM in experiment [4] and 30 nM in experiment [7]. Also, the GI50 is 21.3 nM in experiment [3], 1380 nM in experiment [5] and 258 nM in experiment [6]. The “MV-4-11 TGI” value in experiment [3] worked out at 37.1 nM. Besides, the “K-562 TGI” value in experiment [5] was above 10000 nM. Besides, the “THP-1 TGI” value in experiment [6] is 458 nM.

With `Cc1cc(N2C(=O)c3nc(C4=CCOCC4)n(C(C)C)c3C2c2ccc(Cl)cc2)nn2c(C)nnc12` (stereo not shown) [Example 100, 6-(4-chlorophenyl)-2-(3,6-dihydro-2H-pyran-4-yl)-5-(3,8-dimethyl-[1,2,4]triazolo[4,3-b]pyridazin-6-yl)-1-isopropyl-5,6-dihydropyrrolo[3,4-d]imidazol-4(1H)-one], the half-inhibitory concentration (IC50) in experiment [1] is above 37000 nM; in experiment [2], 63 nM; in experiment [4], 25 nM; in experiment [7], 26.5 nM. Moreover, the GI50 in experiment [3] was 4.96 nM; in experiment [5], 42.9 nM; in experiment [6], 7.22 nM. Also, the “MV-4-11 TGI” value in experiment [3] was found to be 13.8 nM. Besides, the “K-562 TGI” value in experiment [5] was above 10000 nM. In addition, the “THP-1 TGI” value in experiment [6] came out at 26.7 nM.

As to `COc1cc(N2C(=O)c3nc(C4CCOCC4)n(C(C)C)c3C2c2ccc(Cl)cc2)cc2c1nnn2C` (racemic) [Example 64], the half-maximal inhibitory concentration (IC50) in experiment [1] stood at 10200 nM; in experiment [2] it was 120 nM; in experiment [4], 58 nM; in experiment [7] it was 43 nM. Besides, the GI50 in experiment [3] is 35.1 nM; in experiment [5], 156 nM; in experiment [6], 84.3 nM. The “MV-4-11 TGI” value in experiment [3] is 54.6 nM. The “K-562 TGI” value in experiment [5] is above 10000 nM. In addition, in experiment [6], the “THP-1 TGI” value turned out to be 155 nM.

As for `Cc1cc(N2C(=O)c3nc(N4CCOCC4)n(C)c3C2c2ccc(Cl)cc2)cn(C)c1=O` (stereo not shown) [Example 130, 6-(4-chlorophenyl)-5-(1,5-dimethyl-6-oxo-1,6-dihydropyridin-3-yl)-1-methyl-2-morpholino-5,6-dihydropyrrolo[3,4-d]imidazol-4(1H)-one], the IC50 stood at 2400 nM in experiment [1], 230 nM in experiment [2], 160 nM in experiment [4] and 180 nM in experiment [7]. For the same molecule, the GI50 in experiment [3] stood at 167 nM; in experiment [5], 1940 nM; in experiment [6], 526 nM. Further, in experiment [3], the “MV-4-11 TGI” value was 390.5 nM. The “K-562 TGI” value in experiment [5] is above 10000 nM. Moreover, the “THP-1 TGI” value in experiment [6] stood at 1210 nM.

In the case of `Cc1cc(N2C(=O)c3nc(C4=CC(C)(C)NC(C)(C)C4)n(C(C)C)c3C2c2ccc(Cl)cc2)cn2c(CF)nnc12` (stereo not shown) [Example 90, 6-(4-chlorophenyl)-5-(3-(fluoromethyl)-8-methyl-[1,2,4]triazolo[4,3-a]pyridin-6-yl)-1-isopropyl-2-(2,2,6,6-tetramethyl-1,2,3,6-tetrahydropyridin-4-yl)-5,6-dihydropyrrolo[3,4-d]imidazol-4(1H)-one], the IC50 in experiment [1] stood at 13100 nM; in experiment [2], 67 nM; in experiment [4], 37 nM; in experiment [7], 30 nM. For the same molecule, the values for the GI50 in experiment [3], in experiment [5] and in experiment [6] were 16.2 nM, 270 nM and 82.8 nM, respectively. The “MV-4-11 TGI” value in experiment [3] turned out to be 31.75 nM. The “K-562 TGI” value in experiment [5] was above 10000 nM. In addition, the “THP-1 TGI” value in experiment [6] came to 271 nM.

As for `Cc1cc(N2C(=O)c3nc(C4=CCN(S(C)(=O)=O)CC4)n(C(C)C)c3C2c2ccc(Cl)cc2)cn2c(C)nnc12` (stereo not shown) [Example 67, 6-(4-chlorophenyl)-5-(3,8-dimethyl-[1,2,4]triazolo[4,3-a]pyridin-6-yl)-1-isopropyl-2-(1-(methylsulfonyl)-1,2,3,6-tetrahydropyridin-4-yl)-5,6-dihydropyrrolo[3,4-d]imidazol-4(1H)-one], the IC50 in experiment [1] was 5200 nM; in experiment [2], 38 nM; in experiment [4] it was 20.5 nM; in experiment [7], 17 nM. Moreover, the GI50 stood at 165 nM in experiment [3], 5400 nM in experiment [5] and 1280 nM in experiment [6]. Further, the “MV-4-11 TGI” value in experiment [3] was 332.5 nM. Moreover, the “K-562 TGI” value in experiment [5] is above 10000 nM. Also, the “THP-1 TGI” value in experiment [6] came out at 3275 nM.

`COc1cc(N2C(=O)c3nc(C4=CCCN(C)C4)n(C(C)C)c3C2c2ccc(Cl)cc2)cc2c1nnn2C` (stereo not shown) [Example 62]: the IC50 in experiment [1] was determined as 31400 nM; in experiment [2] it was 150 nM; in experiment [4], 86 nM; in experiment [7], 120 nM. For the same molecule, the GI50 in experiment [3] was determined as 41.9 nM; in experiment [5] it was 391 nM; in experiment [6], 164 nM. Further, the “MV-4-11 TGI” value in experiment [3] was 80.25 nM. Besides, in experiment [5], the “K-562 TGI” value is above 10000 nM. In addition, in experiment [6], the “THP-1 TGI” value turned out to be 331.5 nM.

Take `COc1ccc(-c2nc3c(n2C(C)C)C(c2ccc(Cl)cc2)N(c2cc(C)c4onc(C)c4c2)C3=O)cn1` (stereo not shown) [Example 35, 6-(4-chlorophenyl)-5-(3,7-dimethylbenzo[d]isoxazol-5-yl)-1-isopropyl-2-(6-methoxypyridin-3-yl)-5,6-dihydropyrrolo[3,4-d]imidazol-4(1H)-one]: the IC50 in experiment [1] was above 37000 nM; in experiment [2] it was 43 nM; in experiment [4] it was 35 nM; in experiment [7], 21 nM. In addition, the GI50 in experiment [3] was found to be 226 nM; in experiment [5] it was 946 nM; in experiment [6], 289 nM. The “MV-4-11 TGI” value in experiment [3] stood at 384 nM. Also, the “K-562 TGI” value in experiment [5] was above 10000 nM. For the same molecule, the “THP-1 TGI” value in experiment [6] is 462 nM.

Turning to `COc1cc(N2C(=O)c3nc(C4=CCOCC4)n(C(C)C)c3[C@H]2c2ccc(Cl)cc2)cc2c1nnn2C` [Example 61], the half-maximal inhibitory concentration (IC50) in experiment [1] amounted to 17900 nM; in experiment [2] it was 100 nM; in experiment [4], 51.5 nM; in experiment [7], 24.5 nM. The GI50 is 28.2 nM in experiment [3], 116 nM in experiment [5] and 65.4 nM in experiment [6]. The “MV-4-11 TGI” value in experiment [3] was found to be 55.1 nM. The “K-562 TGI” value in experiment [5] was above 10000 nM. The “THP-1 TGI” value in experiment [6] stood at 149 nM.

The values above are taken from patent US9890166B2, “Imidazopyrrolidine derivatives and their use in the treatment of disease” (NOVARTIS AG, priority 2013, dated 2018).
